Some results are limits rather than exact numbers.

This test has as its target T1, human CXCR3 (N-delta 4) (Homo sapiens, UniProt P49682).
T1 construct: CD8 leader; Flag tag; expressed in transfected cells; membranes used
T1 sequence (P49682 5-368 limits assumed): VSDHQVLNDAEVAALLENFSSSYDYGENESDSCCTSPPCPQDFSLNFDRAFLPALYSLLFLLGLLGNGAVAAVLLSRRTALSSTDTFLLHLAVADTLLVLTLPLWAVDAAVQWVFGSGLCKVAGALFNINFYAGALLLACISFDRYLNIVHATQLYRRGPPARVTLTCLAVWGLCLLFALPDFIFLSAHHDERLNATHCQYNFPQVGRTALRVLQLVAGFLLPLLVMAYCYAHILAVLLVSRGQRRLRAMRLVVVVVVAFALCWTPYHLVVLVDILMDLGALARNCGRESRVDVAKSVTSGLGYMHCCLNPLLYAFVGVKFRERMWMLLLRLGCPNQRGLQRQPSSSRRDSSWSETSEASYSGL
Briefly: Human CXCR3 (N-delta 4) scintillation proximity assay (SPA), [125I] IP-10 binding. To be noted: IC50 rating; Ba/F3-hCXCR3 (N-delta 4) membranes, 25 pM [125I] IP-10. An excerpt:
The inventive compounds can readily be evaluated to determine activity at the CXCR3 receptors by known methods, such as, for example, development of a human CXCR3 (N-delta 4) Binding Assay.
Cloning and expression of human CXCR3 (N-delta 4):
The DNA encoding human CXCR3 was cloned by PCR using human genomic DNA (Promega, Madison, Wis.) as a template. The PCR primers were designed based on the published sequence of human orphan receptor GPR9 (1) with incorporated restriction sites, a Kozak consensus sequence, CD8 leader and Flag tag. The PCR product was subcloned into the mammalian expression vector pME18Sneo, a derivative of the SR-alpha expression vector (designated as pME18Sneo-hCXCR3 (N-delta 4).
IL-3-dependent mouse pro-B cells Ba/F3 were transfected by electroporation in 0.4 ml Dulbecco's PBS containing 4×10^6 cells with 20 μg of pME18Sneo-hCXCR3 (N-delta 4) plasmid DNA. Cells were pulsed at 400 Volts, 100 OHMs, 960 μFd. The transfected cells were under selection with 1 mg/ml G418 (Life Technologies, Gaithersburg, Md.). […] IP-10 (NEN Life Science Products, Boston, Mass.).
Preparation of Ba/F3-hCXCR3 (N-delta 4) membranes:
Ba/F3 cells expressing human CXCR3 (N-delta 4) were pelleted and resuspended in the lysis buffer containing 10 mM HEPES, pH 7.5 and Complete® protease inhibitors (1 tablet per 100 ml) (Boehringer Mannheim, Indianapolis, Ind.) at a cell density of 20×10^6 cells per ml. […] Large cellular debris was removed by centrifugation at 1,000×g. Cell membrane in the supernatant was sedimented at 100,000×g. The membrane was resuspended in the lysis buffer supplemented with 10% sucrose and stored at −80° C. Total protein concentration of the membrane was determined by BCA method from Pierce (Rockford, Ill.).
Human CXCR3 (N-delta 4) scintillation proximity assay (SPA):
The beads were spun down, washed once, resuspended in the binding buffer and transferred to a 96-well Isoplate (Wallac, Gaithersburg, Md.). […] IP-10 with tested compounds in a series of titration were added to start the reaction.
`O=C(NCc1cc(Cl)cc(Cl)c1)c1cnc(N2CCN(C3CCN(Cc4ccc(Cl)cc4)CC3)CC2)c(Cl)c1` [compound 52]: the IC50 is more than 100 nM.
Regarding `O=C(NCc1ccccc1)c1cnc(N2CCN(C3CCN(Cc4ccc(F)c(F)c4)CC3)CC2)c(Cl)c1` [compound 53], the IC50 was more than 100 nM.
The molecule `COc1ccc(CN2CCC(N3CCN(c4ncc(C(=O)NCc5cccc(Cl)c5)cc4Cl)CC3)CC2)cc1` [compound 54] displayed an IC50 of more than 100 nM.
With `O=C(NCc1ccc(F)cc1)c1cnc(N2CCN(C3CCN(Cc4ccc(F)cc4)CC3)CC2)c(Cl)c1` [compound 55] the figure was more than 100 nM; with `COc1ccc(CN2CCC(N3CCN(c4ncc(C(=O)NCc5ccc(F)cc5F)cc4Cl)CC3)CC2)cc1` [compound 56], more than 100 nM.
On to `O=C(NCc1cccc(Cl)c1)c1cnc(N2CCN(C3CCN(Cc4ccc(F)cc4)CC3)CC2)c(Cl)c1` [compound 57], for which the IC50 was more than 100 nM.
`O=C(NCc1ccc(F)cc1F)c1cnc(N2CCN(C3CCN(Cc4ccc(F)cc4)CC3)CC2)c(Cl)c1` [compound 58] registered an IC50 of more than 100 nM.
In turn, `O=C(NCc1ccc(Cl)cc1Cl)c1cnc(N2CCN(C3CCN(Cc4ccc(F)cc4F)CC3)CC2)c(Cl)c1` [compound 59] yielded an IC50 of more than 100 nM.
With `O=C(NCCOc1ccccc1)c1cnc(N2CCN(C3CCN(Cc4ccc(F)cc4)CC3)CC2)c(Cl)c1` [compound 60] the figure was more than 100 nM; with `N#Cc1ccc(CN2CCC(N3CCN(c4ncc(C(=O)NCc5cccc(F)c5)cc4Cl)CC3)CC2)cc1` [compound 61], more than 100 nM; with `O=C(NCc1ccc(F)c(F)c1)c1cnc(N2CCN(C3CCN(Cc4ccc(Br)cc4F)CC3)CC2)c(Cl)c1` [compound 62], more than 100 nM.
As for `COc1ccc(CN2CCC(N3CCN(c4ncc(C(=O)NCc5ccc(Cl)cc5Cl)cc4Cl)CC3)CC2)cc1` [compound 63], the figure is more than 100 nM; as for `N#Cc1ccc(C(=O)N2CCC(N3CCN(c4ncc(C(=O)NCc5ccc(Cl)c(Cl)c5)cc4Cl)CC3)CC2)cc1` [compound 64], more than 100 nM; as for `O=C(NCc1ccc(Cl)c(Cl)c1)c1cnc(N2CCN(C3CCN(Cc4ccc(Br)cc4F)CC3)CC2)c(Cl)c1` [compound 65], more than 100 nM.
With `O=C(NCc1ccc(C(F)(F)F)cc1)c1cnc(N2CCN(C3CCN(Cc4ccc(F)cc4)CC3)CC2)c(Cl)c1` [compound 66] the figure was more than 100 nM; with `O=C(NCc1ccc(Br)cc1)c1cnc(N2CCN(C3CCN(Cc4ccc(F)cc4F)CC3)CC2)c(Cl)c1` [compound 67], more than 100 nM.
`N#Cc1ccc(C(=O)N2CCC(N3CCN(c4ncc(C(=O)NCc5ccc(Br)cc5)cc4Cl)CC3)CC2)cc1` [compound 68] displayed an IC50 of more than 100 nM.
As for `N#Cc1ccc(CN2CCC(N3CCN(c4ncc(C(=O)NCc5ccc(Cl)cc5Cl)cc4Cl)CC3)CC2)cc1` [compound 69], the figure is more than 100 nM; as for `N#Cc1ccc(C(=O)N2CCC(N3CCN(c4ncc(C(=O)NCc5ccc(C(F)(F)F)cc5)cc4Br)CC3)CC2)cc1` [compound 70], more than 100 nM; as for `O=C(NCc1ccccc1)c1cnc(N2CCN(C3CCN(Cc4ccc(Cl)c(F)c4)CC3)CC2)c(Cl)c1` [compound 71], more than 100 nM.
With `O=C(NCc1ccccc1)c1cnc(N2CCN(C3CCN(Cc4ccc(Cl)cc4)CC3)CC2)c(Cl)c1` [compound 72] the figure was more than 100 nM; with `O=C(NCc1ccc(C(F)(F)F)cc1)c1cnc(N2CCN(C3CCN(Cc4ccc(Cl)c(F)c4)CC3)CC2)c(Cl)c1` [compound 73], more than 100 nM; with `CC(c1ccc([N+](=O)[O-])cc1)N1CCC(N2CCN(c3ncc(C(=O)NCc4ccc(Cl)c(Cl)c4)cc3Cl)CC2)CC1` (stereo not drawn) [compound 74], more than 100 nM.
With `O=C(NCc1ccccc1)c1cnc(N2CCN(C3CCN(Cc4ccc([N+](=O)[O-])cc4)CC3)CC2)c(Cl)c1` [compound 75] the figure was more than 100 nM; with `CC(c1ccc([N+](=O)[O-])cc1)N1CCC(N2CCN(c3ncc(C(=O)NCc4ccc(F)c(F)c4)cc3Cl)CC2)CC1` (stereo not drawn) [compound 76], more than 100 nM; with `O=C(NCc1cc(Cl)cc(Cl)c1)c1cnc(N2CCN(C3CCN(Cc4ccc(F)cc4)CC3)CC2)c(Cl)c1` [compound 77], more than 100 nM.
Molecule `O=C(NCc1cc(Cl)cc(Cl)c1)c1cnc(N2CCN(C3CCN(Cc4ccc(F)c(F)c4)CC3)CC2)c(Cl)c1` [compound 78] came in with an IC50 of more than 100 nM.
As for `O=C(NCc1ccc(F)cc1F)c1cnc(N2CCN(C3CCN(Cc4ccc(Br)cc4)CC3)CC2)c(Cl)c1` [compound 79], the figure is more than 100 nM.
Consider `O=C(NCc1cc(Cl)cc(Cl)c1)c1cnc(N2CCN(C3CCN(Cc4ccc(Cl)c(F)c4)CC3)CC2)c(Cl)c1` [compound 80], for which the IC50 is more than 100 nM.
`N#Cc1ccc(C(=O)N2CCC(N3CCN(c4ncc(C(=O)NCc5ccc(Cl)cc5F)cc4Cl)CC3)CC2)cc1` [compound 81] displayed an IC50 of more than 100 nM.
Consider `O=C(NCCCc1ccccc1)c1cnc(N2CCN(C3CCN(Cc4ccc(Cl)cc4)CC3)CC2)c(Cl)c1` [compound 82], for which the IC50 is more than 100 nM.
`N#Cc1ccc(C(=O)N2CCC(N3CCN(c4ncc(C(=O)NCc5ccc(F)c(Cl)c5)cc4Cl)CC3)CC2)cc1` [compound 83] yielded an IC50 of more than 100 nM.
With `O=C(NCc1cccc(Cl)c1)c1cnc(N2CCN(C3CCN(Cc4ccc(Cl)cc4)CC3)CC2)c(Cl)c1` [compound 84] the figure was more than 100 nM; with `O=C(NCc1ccc(C(F)(F)F)cc1)c1cnc(N2CCN(C3CCN(Cc4ccc(Cl)cc4)CC3)CC2)c(Cl)c1` [compound 85], more than 100 nM.
As for `N#Cc1ccc(CN2CCC(N3CCN(c4ncc(C(=O)NCc5ccc(F)cc5F)cc4Cl)CC3)CC2)cc1` [compound 86], the figure is more than 100 nM; as for `O=C(NCc1ccc(Cl)cc1)c1cnc(N2CCN(C3CCN(Cc4ccc(F)cc4F)CC3)CC2)c(Cl)c1` [compound 87], more than 100 nM.
On to `O=C(NCc1ccc(Cl)cc1F)c1cnc(N2CCN(C3CCN(Cc4ccc(F)cc4F)CC3)CC2)c(Cl)c1` [compound 88], for which the half-inhibitory concentration (IC50) was more than 100 nM.
For `O=C(NCc1cc(Cl)cc(Cl)c1)c1cnc(N2CCN(C3CCN(Cc4ccc([N+](=O)[O-])cc4)CC3)CC2)c(Cl)c1` [compound 89], the 50% inhibitory concentration (IC50) is more than 100 nM.
In the case of `O=C(NCc1ccc(Cl)c(Cl)c1)c1cnc(N2CCN(C3CCN(Cc4ccc(F)cc4F)CC3)CC2)c(Cl)c1` [compound 90], the IC50 was more than 100 nM.
In turn, `O=C(NCc1cccc(F)c1)c1cnc(N2CCN(C3CCN(Cc4ccc(F)c(F)c4)CC3)CC2)c(Cl)c1` [compound 91] yielded a half-maximal inhibitory concentration (IC50) of more than 100 nM.
`O=C(NCc1ccc(C(F)(F)F)cc1)c1cnc(N2CCN(C3CCN(Cc4ccc(F)c(F)c4)CC3)CC2)c(Cl)c1` [compound 92] had a concentration for half-maximal inhibition (IC50) of more than 100 nM.
Turning to `O=C(NCc1ccc(Cl)cc1F)c1cnc(N2CCN(C3CCN(Cc4ccc(Cl)c(F)c4)CC3)CC2)c(Cl)c1` [compound 93], the 50% inhibitory concentration (IC50) was more than 100 nM.
With `O=C(NCc1cccc(F)c1)c1cnc(N2CCN(C3CCN(Cc4ccc([N+](=O)[O-])cc4)CC3)CC2)c(Cl)c1` [compound 94] the figure was 25 to 100 nM; with `O=C(NCc1cccc(F)c1)c1cnc(N2CCN(C3CCN(Cc4ccc(Cl)cc4)CC3)CC2)c(Cl)c1` [compound 95], 25 to 100 nM; with `O=C(NCc1ccc(F)c(F)c1)c1cnc(N2CCN(C3CCN(Cc4ccc(F)cc4F)CC3)CC2)c(Cl)c1` [compound 96], 25 to 100 nM.

The values are drawn from patent publication US7776862B2, “Pyridyl and phenyl substituted piperazine-piperidines with CXCR3 antagonist activity” (Schering Corporation, priority 2005, dated 2010).
